Experimental data reported in US8518945B2, “Pyrrolopyrazine kinase inhibitors” (Hoffmann-La Roche Inc., priority 2010, dated 2013).

Molecular target: T1, h-jak3(810-1124) (JAK3: Recombinant human kinase domain) (Homo sapiens, UniProt P52333)
T1 construct: jak3(810- 1124)-sf9-c; made in house; host or cells: Sf9
Experiment: Determination of IC50 of Janus Kinase (JAK) inhibition: JAK3 radioactive end-point 33P-ATP kinase assay
Format: biochemical
Conditions: no additive; ATP 1.5 uM, peptide 50 uM, 20 minutes, room temperature; read-out: Ic50 h-jak3(810-1124)-sf9-c: no additive

T1 sequence (P52333 810-1124): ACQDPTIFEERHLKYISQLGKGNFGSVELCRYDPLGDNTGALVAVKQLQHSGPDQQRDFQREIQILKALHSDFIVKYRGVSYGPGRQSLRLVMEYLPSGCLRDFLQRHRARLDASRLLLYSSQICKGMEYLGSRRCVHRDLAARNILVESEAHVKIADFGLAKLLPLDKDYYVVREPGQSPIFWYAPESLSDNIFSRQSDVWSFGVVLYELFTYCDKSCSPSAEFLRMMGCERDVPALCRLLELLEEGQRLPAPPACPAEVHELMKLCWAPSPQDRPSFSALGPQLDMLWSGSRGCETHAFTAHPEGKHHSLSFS

Row | Compound | IC50
1 | C[C@@H](NC(=O)c1c[nH]c2ncc(C3CC3)nc12)C(=O)N1CCC(F)(F)C1 [Example I-21, 2-Cyclopropyl-5H-pyrrolo[2,3-b]pyrazine-7-carboxylic acid [(R)-2-(3,3-difluoro-pyrrolidin-1-yl)-1-methyl-2-oxo-ethyl]-amide] | 14.9 nM
2 | COc1ccnc(-c2cnc3[nH]cc(C(=O)N[C@@H](C(=O)N4CCC(C#N)CC4)C(C)(C)C)c3n2)c1 [Example I-127, 2-(4-Methoxy-pyridin-2-yl)-5H-pyrrolo[2,3-b]pyrazine-7-carboxylic acid [(R)-1-(4-cyano-piperidine-1-carbonyl)-2,2-dimethyl-propyl]-amide] | 3.56 nM
3 | CCn1cc(-c2cnc3[nH]cc(C(=O)N[C@@H](C(=O)N4CCCC4)C4CC4)c3n2)cn1 [Example I-27, 2-(1-Ethyl-1H-pyrazol-4-yl)-5H-pyrrolo[2,3-b]pyrazine-7-carboxylic acid ((R)-1-cyclopropyl-2-oxo-2-pyrrolidin-1-yl-ethyl)-amide] | 1.94 nM
4 | N#CC1CCN(C(=O)[C@H](NC(=O)c2c[nH]c3ncc(-c4cc(-c5cccs5)ccn4)nc23)C2CC2)CC1 [Example I-154, 2-(4-Thiophen-2-yl-pyridin-2-yl)-5H-pyrrolo[2,3-b]pyrazine-7-carboxylic acid [(R)-2-(4-cyano-piperidin-1-yl)-1-cyclopropyl-2-oxo-ethyl]-amide] | 3.06 nM
5 | CCn1cc(-c2cnc3[nH]cc(C(=O)N[C@@H](C(=O)N4CCC(C#N)CC4)C(C)(C)C)c3n2)cn1 [Example I-56, 2-(1-Ethyl-1H-pyrazol-4-yl)-5H-pyrrolo[2,3-b]pyrazine-7-carboxylic acid [(R)-1-(4-cyano-piperidine-1-carbonyl)-2,2-dimethyl-propyl]-amide] | 0.77 nM
6 | CC(C)(C)[C@@H](NC(=O)c1c[nH]c2ncc(C3CC3)nc12)C(=O)N1CCc2ncccc2C1 [Example I-135, 2-Cyclopropyl-5H-pyrrolo[2,3-b]pyrazine-7-carboxylic acid [(R)-1-(7,8-dihydro-5H-[1,6]naphthyridine-6-carbonyl)-2,2-dimethyl-propyl]-amide] | 6.11 nM
7 | N#CC1CCN(C(=O)[C@H](NC(=O)c2c[nH]c3ncc(C4CC4)nc23)C2CC2)CC1 [Example I-61, 2-Cyclopropyl-5H-pyrrolo[2,3-b]pyrazine-7-carboxylic acid [(R)-2-(4-cyano-piperidin-1-yl)-1-cyclopropyl-2-oxo-ethyl]-amide] | 0.42 nM
8 | CC(C)(C)[C@@H](NC(=O)c1c[nH]c2ncc(C3CC3)nc12)C(=O)N1CC[C@H](C#N)C1 [Example I-30, 2-Cyclopropyl-5H-pyrrolo[2,3-b]pyrazine-7-carboxylic acid [(R)-1-((S)-3-cyano-pyrrolidine-1-carbonyl)-2,2-dimethyl-propyl]-amide] | 1.24 nM
9 | Cn1cc(-c2cnc3[nH]cc(C(=O)N[C@@H](C(=O)N4CC(F)(F)C4)C4CC4)c3n2)cn1 [Example I-150, 2-(1-Methyl-1H-pyrazol-4-yl)-5H-pyrrolo[2,3-b]pyrazine-7-carboxylic acid [(R)-1-cyclopropyl-2-(3,3-difluoro-azetidin-1-yl)-2-oxo-ethyl]-amide] | 2 nM
10 | CC(C)[C@@H](NC(=O)c1c[nH]c2ncc(C3CC3)nc12)C(=O)N1CCOCC1 [Example I-8, 2-Cyclopropyl-5H-pyrrolo[2,3-b]pyrazine-7-carboxylic acid [(R)-2-methyl-1-(morpholine-4-carbonyl)-propyl]-amide] | 12.3 nM
11 | CCn1cc(-c2cnc3[nH]cc(C(=O)N[C@@H](C(=O)N4CCC(F)(F)CC4)C4CC4)c3n2)cn1 [Example I-144, 2-(1-Ethyl-1H-pyrazol-4-yl)-5H-pyrrolo[2,3-b]pyrazine-7-carboxylic acid [(R)-1-cyclopropyl-2-(4,4-difluoro-piperidin-1-yl)-2-oxo-ethyl]-amide] | 0.62 nM
12 | O=C(N[C@@H](C(=O)N1CCCC1)C1CC1)c1c[nH]c2ncc(C3CC3)nc12 [Example I-5, 2-Cyclopropyl-5H-pyrrolo[2,3-b]pyrazine-7-carboxylic acid ((R)-1-cyclopropyl-2-oxo-2-pyrrolidin-1-yl-ethyl)-amide] | 1.72 nM
